Results on 16 compounds are retold here after the NIST ThermoML archive (doi:10.1021/je100952p).

Numbers after ± are expanded uncertainties.

The data set is described as follows: activity coefficient (dimensionless); of the first substance listed, at infinite dilution; xn = mol fraction of the nth substance listed. As to conditions: 101 kPa, Liquid, Chromatography, x1 = 0.

Regarding `Cc1ccccc1C` [1,2-dimethylbenzene] + CCCCCCCCCCn1cc[n+](C)c1.F[B-](F)(F)F, the activity coefficient came out at 1.79 ± 0.11 (303.15 K); 1.77 ± 0.11 (313.15 K); 1.75 ± 0.11 (323.15 K); 1.73 ± 0.11 (333.15 K); 1.72 ± 0.11 (343.15 K); 1.72 ± 0.11 (353.15 K). Also, the activity coefficient (363.15 K) amounted to 1.71 ± 0.11.
In the case of `Cc1cccc(C)c1` [1,3-dimethylbenzene] + CCCCCCCCCCn1cc[n+](C)c1.F[B-](F)(F)F, the activity coefficient reads like this: (303.15 K) 2.03 ± 0.13; (313.15 K) 2.02 ± 0.13; (323.15 K) 1.97 ± 0.13; (333.15 K) 1.95 ± 0.13; (343.15 K) 1.94 ± 0.12; (353.15 K) 1.92 ± 0.12. Besides, the activity coefficient (363.15 K) is 1.91 ± 0.12.
With `Cc1ccc(C)cc1` [1,4-dimethylbenzene] + CCCCCCCCCCn1cc[n+](C)c1.F[B-](F)(F)F, the activity coefficient is, setting by setting: (303.15 K) 1.99 ± 0.13; (313.15 K) 1.96 ± 0.13; (323.15 K) 1.93 ± 0.12; (333.15 K) 1.92 ± 0.12; (343.15 K) 1.91 ± 0.12; (353.15 K) 1.88 ± 0.12. For the same compound, where the note is “363.15 K”, the activity coefficient was determined as 1.86 ± 0.12.
`CC(C)CC(C)(C)C` [2,2,4-trimethylpentane] + CCCCCCCCCCn1cc[n+](C)c1.F[B-](F)(F)F: the activity coefficient by setting is: (303.15 K) 9.13 ± 0.59; (313.15 K) 9.11 ± 0.59; (323.15 K) 9.1 ± 0.6; (333.15 K) 9.08 ± 0.59; (343.15 K) 9.07 ± 0.59; (353.15 K) 9.07 ± 0.59. Moreover, the activity coefficient (363.15 K) was found to be 9.06 ± 0.59.
For `c1ccccc1` [benzene] + CCCCCCCCCCn1cc[n+](C)c1.F[B-](F)(F)F, the activity coefficient reads like this: (303.15 K) 1.15 ± 0.07; (313.15 K) 1.14 ± 0.07; (323.15 K) 1.11 ± 0.07; (333.15 K) 1.1 ± 0.1; (343.15 K) 1.08 ± 0.06; (353.15 K) 1.07 ± 0.06. For the same compound, under “363.15 K”, the activity coefficient worked out at 1.06 ± 0.06.
`C1CCCCC1` [cyclohexane] + CCCCCCCCCCn1cc[n+](C)c1.F[B-](F)(F)F: the activity coefficient (303.15 K) is 4.42 ± 0.29; the activity coefficient (313.15 K) came to 4.43 ± 0.29; the activity coefficient (323.15 K) came out at 4.43 ± 0.29; the activity coefficient (333.15 K) was 4.47 ± 0.29; the activity coefficient (343.15 K) was found to be 4.5 ± 0.3; the activity coefficient (353.15 K) turned out to be 4.56 ± 0.29. The activity coefficient (363.15 K) is 4.69 ± 0.3.
Turning to `C1=CCCCC1` [cyclohexene] + CCCCCCCCCCn1cc[n+](C)c1.F[B-](F)(F)F, the activity coefficient was determined as 3.03 ± 0.2 (303.15 K); 3.01 ± 0.19 (313.15 K); 2.99 ± 0.19 (323.15 K); 2.97 ± 0.19 (333.15 K); 2.96 ± 0.19 (343.15 K); 2.96 ± 0.19 (353.15 K). Further, the activity coefficient (363.15 K) amounted to 2.96 ± 0.19.
As to `CCc1ccccc1` [ethylbenzene] + CCCCCCCCCCn1cc[n+](C)c1.F[B-](F)(F)F, the activity coefficient (313.15 K) amounted to 2.02 ± 0.13; the activity coefficient (323.15 K) worked out at 2.01 ± 0.13; the activity coefficient (333.15 K) came to 1.99 ± 0.13; the activity coefficient (343.15 K) is 1.98 ± 0.13; the activity coefficient (353.15 K) worked out at 1.97 ± 0.13; the activity coefficient (363.15 K) worked out at 1.96 ± 0.13.
In the case of `CCCCCCC` [heptane] + CCCCCCCCCCn1cc[n+](C)c1.F[B-](F)(F)F, the activity coefficient was found to be 8.01 ± 0.52 (303.15 K); 7.97 ± 0.52 (313.15 K); 7.95 ± 0.51 (323.15 K); 7.93 ± 0.51 (333.15 K); 7.91 ± 0.51 (343.15 K); 7.89 ± 0.51 (353.15 K). Besides, the activity coefficient (363.15 K) is 7.88 ± 0.51.
For the compound `CCCCCC` [hexane] + CCCCCCCCCCn1cc[n+](C)c1.F[B-](F)(F)F, the activity coefficient (303.15 K) is 7.36 ± 0.48; the activity coefficient (313.15 K) was determined as 7.16 ± 0.46; the activity coefficient (323.15 K) was found to be 7.03 ± 0.45; the activity coefficient (333.15 K) was determined as 6.94 ± 0.45; the activity coefficient (343.15 K) is 6.86 ± 0.44; the activity coefficient (353.15 K) was 6.81 ± 0.44. The activity coefficient (363.15 K) was 6.68 ± 0.43.
For the compound `CC1CCCCC1` [methylcyclohexane] + CCCCCCCCCCn1cc[n+](C)c1.F[B-](F)(F)F, the activity coefficient was determined as 5.19 ± 0.34 (303.15 K); 5.23 ± 0.34 (313.15 K); 5.24 ± 0.34 (323.15 K); 5.28 ± 0.34 (333.15 K); 5.32 ± 0.34 (343.15 K); 5.36 ± 0.35 (353.15 K). Where the note is “363.15 K”, the activity coefficient amounted to 5.39 ± 0.35.
In the case of `CCCCCCCCC` [nonane] + CCCCCCCCCCn1cc[n+](C)c1.F[B-](F)(F)F, the activity coefficient was determined as 10.7 ± 0.69 (303.15 K); 10.7 ± 0.69 (313.15 K); 10.7 ± 0.69 (323.15 K); 10.7 ± 0.69 (333.15 K); 10.7 ± 0.69 (343.15 K); 10.7 ± 0.69 (353.15 K). Further, where the note is “363.15 K”, the activity coefficient was determined as 10.6 ± 0.69.
Turning to `CCCCCCCC` [octane] + CCCCCCCCCCn1cc[n+](C)c1.F[B-](F)(F)F, the activity coefficient is, setting by setting: (303.15 K) 9.3 ± 0.6; (313.15 K) 9.26 ± 0.6; (323.15 K) 9.21 ± 0.6; (333.15 K) 9.2 ± 0.6; (343.15 K) 9.17 ± 0.59; (353.15 K) 9.16 ± 0.59. Further, under “363.15 K”, the activity coefficient stood at 9.13 ± 0.59.
Turning to `CCCCC` [pentane] + CCCCCCCCCCn1cc[n+](C)c1.F[B-](F)(F)F, the activity coefficient reads like this: (303.15 K) 6.88 ± 0.45; (313.15 K) 6.72 ± 0.43; (323.15 K) 6.53 ± 0.42; (333.15 K) 6.29 ± 0.41; (343.15 K) 6.12 ± 0.4; (353.15 K) 6.01 ± 0.39. Where the note is “363.15 K”, the activity coefficient was 5.93 ± 0.38.
On to `C=Cc1ccccc1` [styrene] + CCCCCCCCCCn1cc[n+](C)c1.F[B-](F)(F)F, for which the activity coefficient came to 1.25 ± 0.08 (313.15 K); 1.22 ± 0.07 (323.15 K); 1.2 ± 0.1 (333.15 K); 1.18 ± 0.07 (343.15 K); 1.16 ± 0.07 (353.15 K); 1.14 ± 0.07 (363.15 K).
Consider `Cc1ccccc1` [toluene] + CCCCCCCCCCn1cc[n+](C)c1.F[B-](F)(F)F, for which the activity coefficient runs as follows: (303.15 K) 1.52 ± 0.09; (313.15 K) 1.49 ± 0.09; (323.15 K) 1.47 ± 0.09; (333.15 K) 1.43 ± 0.09; (343.15 K) 1.41 ± 0.09; (353.15 K) 1.4 ± 0.1. In addition, the activity coefficient (363.15 K) turned out to be 1.35 ± 0.08.
